The values below come from ChEMBL document CHEMBL4834411, “Hydroazulene Diterpenes from a Dictyota Brown Alga and Their Antioxidant and Neuroprotective Effects Against Cerebral Ischemia-Reperfusion Injury” (2021).

The test system of assay [1] is PC-12. The assay can be described thus: Cytoprotective activity against H2O2-induced oxidative damage in rat PC12 cells assessed as increase in cell viability pre-incubated for 24 hrs followed by H2O2 treatment for another 24 hrs by MTT assay. Conditions: dose 0.25-2 µM, time 48.0 hrs. In kind it is functional, cell-based.
For assay [2], the system named is PC-12. Briefly: Cytoprotective activity against H2O2-induced oxidative damage in rat PC12 cells assessed as increase in cell viability at 0.25 uM preincubated for 24 hrs followed by H2O2 treatment for another 24 hrs by MTT assay. The assay is classed as functional, cell-based. The settings on record: time 48.0 hrs. (In general: Tetrazolium assays rely on reduction of a dye to a coloured formazan, in cell work by metabolically active cells.)

The subject of assay [3] is PC-12. The assay can be described thus: Cytoprotective activity against H2O2-induced oxidative damage in rat PC12 cells assessed as increase in colony formation at 0.5 to 1 uM preincubated for 24 hrs followed by H2O2 treatment by crystal violet staining based assay. Conditions: dose 0.5-1 µM. In kind it is functional, cell-based.
Assay [4] deals with PC-12. The assay can be described thus: Antioxidant activity against H2O2-induced oxidative damage in rat PC12 cells assessed as inhibition of MDA production at 2 uM preincubated for 24 hrs followed by H2O2 stimulation for 6 hrs. In kind it is functional, cell-based. Conditions: time 30.0 hrs.
In assay [5] the test system is PC-12. Briefly: Antioxidant activity against H2O2-induced oxidative damage in rat PC12 cells assessed as inhibition of intracellular ROS production at 2 uM preincubated for 24 hrs followed by H2O2 stimulation for 2 hrs by DCFH-DA staining based fluorescence microscopy. In kind it is functional, cell-based. Conditions: time 26.0 hrs.
The target in assay [6] is T1, Nuclear factor erythroid 2-related factor 2 (Rattus norvegicus) (UniProt O54968).
T1 sequence (whole entry): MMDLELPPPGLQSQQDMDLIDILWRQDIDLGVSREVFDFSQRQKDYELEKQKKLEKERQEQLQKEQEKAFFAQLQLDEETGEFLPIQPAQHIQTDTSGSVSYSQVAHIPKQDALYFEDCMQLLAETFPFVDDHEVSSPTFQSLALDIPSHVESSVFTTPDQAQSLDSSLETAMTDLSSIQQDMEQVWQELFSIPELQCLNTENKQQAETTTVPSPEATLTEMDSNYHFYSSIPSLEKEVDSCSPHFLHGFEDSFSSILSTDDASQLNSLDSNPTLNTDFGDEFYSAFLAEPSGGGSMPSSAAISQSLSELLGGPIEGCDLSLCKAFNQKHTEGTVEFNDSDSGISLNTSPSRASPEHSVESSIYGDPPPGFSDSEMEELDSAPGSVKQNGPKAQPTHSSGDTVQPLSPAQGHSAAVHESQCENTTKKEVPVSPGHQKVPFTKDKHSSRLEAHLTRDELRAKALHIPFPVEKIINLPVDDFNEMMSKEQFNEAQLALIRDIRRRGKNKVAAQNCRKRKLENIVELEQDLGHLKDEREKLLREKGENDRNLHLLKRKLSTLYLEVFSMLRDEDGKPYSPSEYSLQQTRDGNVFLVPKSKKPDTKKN
Briefly: Activation of Nrf2 in rat PC12 cells assessed as nuclear translocation of Nrf2 at 2 uM after 6 hrs by DAPI staining based fluorescence microscopy analysis. The assay is classed as cell-based. Conditions: PC-12, filed as activator.

Assay [7] concerns the target T1, Nuclear factor erythroid 2-related factor 2 (Rattus norvegicus). Briefly: Activation of Nrf2 in rat PC12 cells assessed as upregulation of HO-1 protein expression after 24 hrs by Western blotting analysis. The assay is classed as cell-based. Conditions: PC-12, filed as activator, dose 0.5-2 µM.
Assay [8] shares this target. Briefly: Activation of Nrf2 in rat PC12 cells assessed as upregulation of HO-1 protein expression at 2 uM after 24 hrs by Western blotting analysis. The assay is classed as cell-based. Conditions: PC-12, filed as activator. (A western blot detects proteins with antibodies after separation by electrophoresis.)
The test system of assay [9] is PC-12. The assay can be described thus: Cytoprotective activity against H2O2-induced oxidative damage in Nrf2 knockdown rat PC12 cells assessed as increase in cell viability at 2 uM preincubated for 24 hrs followed by H2O2 treatment for another 24 hrs by MTT assay. In kind it is functional, cell-based. The settings on record: time 48.0 hrs.
Assay [10] deals with Rattus norvegicus. Briefly: Neuroprotective activity in Sprague-Dawley rat model of middle cerebral artery occlusion-induced cerebral ischemia-reperfusion injury assessed as decrease in brain infarction size at 80 ug/kg pretreated for 2 hrs followed by MCAO measured after 72 hrs by TTC staining based assay. The assay is classed as functional, organism-based. Conditions: dose 80.0 µg/kg.

Assay [11] has as its system Rattus norvegicus. Briefly: Neuroprotective activity in Sprague-Dawley rat model of middle cerebral artery occlusion-induced cerebral ischemia-reperfusion injury assessed as reduction in neurological deficit score at 80 ug/kg pretreated for 2 hrs followed by MCAO measured after 72 hrs by TTC staining based assay. Conditions: dose 80.0 µg/kg, time 74.0 hrs. In kind it is functional, organism-based.

Activity calls are given as the source filed them. No cut-off for these calls is given here.

With `CC(C)=CCC[C@@H](C)[C@@H]1CC[C@](C)(O)[C@@H]2CC=C(C)[C@H]2[C@@H]1O`, the Activity entry (with PC-12 [1]; in assay [7]) was “Dose-Dependent Effect” each time. Further, the result (in the assay on PC-12 [2]; in the assay on PC-12 [3]; in the assay on PC-12 [4]; in the assay with PC-12 [5]; in assay [6]; in assay [8]) was Active. In addition, the result in the assay on Rattus norvegicus [10] and with Rattus norvegicus [11] was Active. Besides, the result with PC-12 [9] was inactive.
